The term Ki denotes the dissociation constant of the complex between target and ligand, obtained from inhibition or displacement.

Consider 14 molecules from patent US7414060B2, “Pyridine-2-carboxyamide derivatives” (Hoffmann-La Roche Inc., priority 2005, dated 2008).

T1 sequence (P41594 21-1180 isoform P41594-2 limits assumed): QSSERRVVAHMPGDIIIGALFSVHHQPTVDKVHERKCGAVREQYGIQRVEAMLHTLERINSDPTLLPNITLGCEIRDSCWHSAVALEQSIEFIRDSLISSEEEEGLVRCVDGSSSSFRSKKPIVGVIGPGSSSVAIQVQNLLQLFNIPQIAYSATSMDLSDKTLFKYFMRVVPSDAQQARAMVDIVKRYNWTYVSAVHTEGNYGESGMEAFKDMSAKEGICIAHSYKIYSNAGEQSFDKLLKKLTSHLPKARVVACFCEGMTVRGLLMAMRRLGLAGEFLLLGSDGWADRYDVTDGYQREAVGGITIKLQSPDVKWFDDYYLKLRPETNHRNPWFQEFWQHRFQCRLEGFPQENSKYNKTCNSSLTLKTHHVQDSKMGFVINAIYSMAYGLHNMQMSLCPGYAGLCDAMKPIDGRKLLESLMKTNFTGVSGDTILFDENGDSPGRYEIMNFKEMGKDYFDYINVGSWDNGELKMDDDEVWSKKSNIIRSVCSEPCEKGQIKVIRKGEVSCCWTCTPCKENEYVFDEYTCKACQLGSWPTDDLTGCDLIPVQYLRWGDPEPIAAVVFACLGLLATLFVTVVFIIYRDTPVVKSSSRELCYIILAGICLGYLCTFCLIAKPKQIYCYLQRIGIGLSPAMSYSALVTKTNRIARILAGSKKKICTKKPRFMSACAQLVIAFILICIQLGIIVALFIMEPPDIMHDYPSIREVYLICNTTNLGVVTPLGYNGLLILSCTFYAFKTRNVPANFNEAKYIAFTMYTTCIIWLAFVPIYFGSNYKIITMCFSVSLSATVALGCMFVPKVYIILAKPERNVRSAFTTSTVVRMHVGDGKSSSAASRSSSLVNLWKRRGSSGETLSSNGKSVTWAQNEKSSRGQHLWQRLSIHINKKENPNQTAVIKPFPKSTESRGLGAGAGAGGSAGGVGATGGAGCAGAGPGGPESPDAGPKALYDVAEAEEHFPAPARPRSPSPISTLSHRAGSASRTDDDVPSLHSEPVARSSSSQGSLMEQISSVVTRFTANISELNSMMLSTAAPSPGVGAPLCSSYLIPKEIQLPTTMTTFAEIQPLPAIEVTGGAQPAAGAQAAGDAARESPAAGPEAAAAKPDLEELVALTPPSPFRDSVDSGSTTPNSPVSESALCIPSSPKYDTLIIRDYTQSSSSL

This experiment concerns the target T1, human mGlu 5a receptor (Homo sapiens, UniProt P41594).
T1 construct: expressed in transfected cells; host or cells: EBNA cells (transient transfection), cell membrane homogenates
Put plainly: [3H]MPEP competition binding on membranes of EBNA cells transfected with human mGlu 5a receptor. As to conditions: competition with [3H]MPEP (2 nM), 1 h at 4° C., human mGlu 5a receptor membranes; read-out: Ki (mGluR5). On the procedure: The pharmacological activity of the compounds was tested using the following method: For binding experiments, cDNA encoding human mGlu 5a receptor was transiently transfected into EBNA cells using a procedure described by Schlaeger and Christensen [Cytotechnology 15:1-13 (1998)]. Cell membrane homogenates were stored at −80° C. until the day of assay where upon they were thawed and resuspended and polytronized in 15 mM Tris-HCl, 120 mM NaCl, 100 mM KCl, 25 mM CaCl2, 25 mM MgCl2 binding buffer at pH 7.4 to a final assay concentration of 20 μg protein/well.
Saturation isotherms were determined by addition of twelve [^3H]MPEP concentrations (0.04-100 nM) to these membranes (in a total volume of 200 μl) for 1 h at 4° C. Competition experiments were performed with a fixed concentration of [^3H]MPEP (2 nM), and IC50 values of test compounds evaluated using 11 concentrations (0.3-10,000 nM). Incubations were performed for 1 h at 4° C.
At the end of the incubation, membranes were filtered onto unifilter (96-well white microplate with bonded GF/C filter preincubated 1 h in 0.1% PEI in wash buffer, Packard Bio-Science, Meriden, Conn.) with a Filtermate 96 harvester (Packard BioScience) and washed 3 times with cold 50 mM Tris-HCl, pH 7.4 buffer. Nonspecific binding was measured in the presence of 10 μM MPEP. The radioactivity on the filter was counted (3 min) on a Packard Top-count microplate scintillation counter with quenching correction after addition of 45 μl of microscint 40 (Canberra Packard S. A., Zürich, Switzerland) and shaking for 20 min.
The inhibition (antagonists) curves were fitted with a four parameter logistic equation giving IC50, and Hill coefficient using iterative non linear curve fitting software (Xcel fit).
For binding experiments the Ki values of the compounds tested are given. The Ki value is defined by the following formula: Ki=IC50/[1+L/Kd] in which the IC50 values are those concentrations of the compounds tested which cause 50% inhibition of the competing radioligand ([^3H]MPEP). L is the concentration of radioligand used in the binding experiment and the Kd value of the radioligand is empirically determined for each batch of membranes prepared.
As to “6-Methyl-3-(1-methyl-1H-pyrazol-4-ylamino)-pyridine-2-carboxylic acid (5-fluoro-pyridin-2-yl)-amide [Example 96]”, the inhibitory constant (Ki) stood at 57 nM.
`Cc1ccc(Nc2cncnc2)c(C(=O)Nc2cccc(Cl)c2)n1` [Example 2, 6-Methyl-3-(pyrimidin-5-ylamino)-pyridine-2-carboxylic acid (3-chloro-phenyl)-amide]: the inhibition constant (Ki) turned out to be 30 nM.
Consider `Cc1ccc(Nc2cccnc2)c(C(=O)Nc2ccnc(Cl)c2)n1` [Example 4, 6-Methyl-3-(pyridin-3-ylamino)-pyridine-2-carboxylic acid (2-chloro-pyridin-4-yl)-amide], for which the inhibition constant (Ki) was 42 nM.
For `Cc1ccc(Nc2cccnc2)c(C(=O)Nc2ccc(F)cn2)n1` [Example 8, 6-Methyl-3-(pyridin-3-ylamino)-pyridine-2-carboxylic acid (5-fluoro-pyridin-2-yl)-amide], the Ki stood at 21 nM.
`Cc1csc(NC(=O)c2nc(C)ccc2Nc2cccnc2)n1` [Example 14, 6-Methyl-3-(pyridin-3-ylamino)-pyridine-2-carboxylic acid (4-methyl-thiazol-2-yl)-amide]: the Ki amounted to 28 nM.
`Cc1ccc(Nc2cccnc2)c(C(=O)Nc2ccn(C)n2)n1` [Example 16, 6-Methyl-3-(pyridin-3-ylamino)-pyridine-2-carboxylic acid (1-methyl-1H-pyrazol-3-yl)-amide]: the Ki is 27 nM.
Take `Cc1ccc(Nc2cccnc2)c(C(=O)Nc2nc(C(F)(F)F)cs2)n1` [Example 18, 6-Methyl-3-(pyridin-3-ylamino)-pyridine-2-carboxylic acid (4-trifluoromethyl-thiazol-2-yl)-amide]: the Ki was determined as 78 nM.
In the case of `Cc1cc(NC(=O)c2nc(C)ccc2Nc2cncc(C#N)c2)ccn1` [Example 22, 3-(5-Cyano-pyridin-3-ylamino)-6-methyl-pyridine-2-carboxylic acid (2-methyl-pyridin-4-yl)-amide], the Ki came out at 66 nM.
For `Cc1ccc(Nc2cncc(C(F)(F)F)c2)c(C(=O)Nc2ccn(C)n2)n1` [Example 51, 6-Methyl-3-(5-trifluoromethyl-pyridin-3-ylamino)-pyridine-2-carboxylic acid (1-methyl-1H-pyrazol-3-yl)-amide] the value was 82 nM; for `Cc1ccc(Nc2cccc(F)c2)c(C(=O)Nc2ccc(F)c(C)n2)n1` [Example 54, 3-(3-Fluoro-phenylamino)-6-methyl-pyridine-2-carboxylic acid (5-fluoro-6-methyl-pyridin-2-yl)-amide], 55 nM.
In the case of `Cc1ccc(Nc2cccc(C#N)c2)c(C(=O)Nc2nc(C(F)(F)F)cs2)n1` [Example 60, 3-(3-Cyano-phenylamino)-6-methyl-pyridine-2-carboxylic acid (4-trifluoromethyl-thiazol-2-yl)-amide] it was 367 nM; in that of `Cc1ccc(Nc2ccnn2C)c(C(=O)Nc2csc(C)n2)n1` [Example 92, 6-Methyl-3-(2-methyl-2H-pyrazol-3-ylamino)-pyridine-2-carboxylic acid (2-methyl-thiazol-4-yl)-amide], 10 nM.
In the case of `Cc1ccc(Nc2cc(C3CC3)nn2C)c(C(=O)Nc2ccc(F)c(C)n2)n1` [Example 103, 3-(5-Cyclopropyl-2-methyl-2H-pyrazol-3-ylamino)-6-methyl-pyridine-2-carboxylic acid (5-fluoro-6-methyl-pyridin-2-yl)-amide], the inhibition constant Ki was 14 nM.
In the case of `Cc1ccc(Nc2cncnc2)c(C(=O)Nc2ncc(C)s2)n1` [Example 106, 6-Methyl-3-(pyrimidin-5-ylamino)-pyridine-2-carboxylic acid (5-methyl-thiazol-2-yl)-amide], the Ki was found to be 56 nM.
